These results are taken from patent US8933056B2, “Soft protease inhibitors and pro-soft forms thereof” (Trustees of Tufts College, priority 2005, dated 2015).

SMILES strings stand for the structures. Where two headings read alike, the source gives them in different places.

Data set [1] addresses T1, DPPIV (Homo sapiens (Human), UniProt P27487). Put plainly: physchem. The settings on record: pH 7.8. The method, then: DPP IV inhibition was measured at various times after the pH jump and the IC50 values were plotted as a function of time. […] This value was fit to a single exponential.
A short description of data set [2]: Inactivation at pH 7.8 followed by 1H NMR. The class given is physicochemical. The settings on record: sodium phosphate buffer; pH jump from pH 2 to pH 7.8, 1H NMR integrals fit to single exponential; read-out: half-life for the inactivation reaction.
Another data set has as its target DP-IV (Sus scrofa (Pig), UniProt P22411). In words: DPP IV inhibition: thioxamide v. oxoamide. The class given is biochemical, porcine. The protocol: The inhibitory activity of a compound may be tested easily. […] A compound is then screened for its ability to inhibit the protease activity of DP-IV with respect to a […] substrate. […] Briefly, a reaction containing 50 micromol sodium Hepes (pH 7.8), 10 micromol Ala-Pro-p-nitroanilide, 6 milliunits of DP-IV, and 2% (vol/vol) dimethylformamide in a total volume of 1.0 mL. The reaction was initiated by the addition of enzyme and reaction rates were measured at 25 C; formation of reaction product (para-nitroanilide) in the presence and absence of a test compound can be detected photometrically, e.g., at 410 nm.

The target in another data set is DP8 (Homo sapiens (Human), UniProt Q6V1X1). Put plainly: Selectivity for dipeptidyl peptidase isoforms, DP8. The class given is biochemical. The protocol: (§1) The inhibitor solution is prepared by dissolving 3-5 mg of inhibitor in pH 2 solution (0.01 N HCl), such that the concentration of the solution is equal to 1 mg/10 mL. A 10 μL sample of this solution is then added to 990 μL of pH 8 buffer (0.1 M HEPES, 0.14 M NaCl), and the solution is allowed to stand at room temperature overnight.
(§2) The substrate solution is prepared by dissolving 2.0 mg of L-alanyl-L-proline-para-nitroanilide into 20 mL of pH 8 buffer.
(§3) 250 μL of enzyme solution is added to well #B1 to #H1, #A2 to #H2, and #A3 to #H3 of a 96 well plate, while well #A1 receives 250 μL of pH 8 buffer instead of enzyme solution.
(§4) A 1:10 dilution is then performed by adding inhibitor solution to #A5 and the solution is mixed well before transferring 10 μL of this solution from #A5 to #B5. The solution in #B5 is then mixed well before transferring 10 μL of this solution from #B5 to #C5. The solution in #C5 is then mixed well before transferring 10 μL of this solution from #C5 to #D5. The solution in #D5 is then mixed well before transferring 10 μL of this solution from #D5 to #E5. The solution in #E5 is then mixed well before transferring 10 μL of this solution from #E5 to #F5. The solution in #F5 is then mixed well before transferring 10 μL of this solution from #F5 to #G5. The solution in #G5 is then mixed well before transferring 10 μL of this solution from #G5 to #H5.
(§5) A 30 μL aliquot is then transferred from #H5 to #H3 for row H, and the contents are mixed well. The analogous procedure is repeated for rows G, F, E, D, C, B, and A sequentially. The plate is then shaken on a plate shaker for 5 min before allowing the plate to incubate at room temperature for an additional 5 min.
(§6) Once the plate has been allowed to incubate, 30 μL of substrate is added to each well except well #A1. […] The absorbance is then immediately read at a wavelength of 410 nm.
(§7) In this example, the assay is conducted for DPIV and DP8 or DP9. The ratio of IC50 values for each tested compound is calculated in order to determine the selectivity for the DPIV isoform. […]

In the next data set the target is DP9 (Homo sapiens (Human), UniProt Q86TI2). In words: Selectivity for dipeptidyl peptidase isoforms, DP9. The class given is biochemical. The protocol:
as §1, §2, §3, §4, §5, §6, §7

The target of data set [3] is T1, DPPIV. Put plainly: DPIV inhibition assay (Examples 2 and 3). The format is biochemical. The protocol: as §1, §2, §3, §4, §5, §6, §7

DP-IV, sequence (P22411 whole entry): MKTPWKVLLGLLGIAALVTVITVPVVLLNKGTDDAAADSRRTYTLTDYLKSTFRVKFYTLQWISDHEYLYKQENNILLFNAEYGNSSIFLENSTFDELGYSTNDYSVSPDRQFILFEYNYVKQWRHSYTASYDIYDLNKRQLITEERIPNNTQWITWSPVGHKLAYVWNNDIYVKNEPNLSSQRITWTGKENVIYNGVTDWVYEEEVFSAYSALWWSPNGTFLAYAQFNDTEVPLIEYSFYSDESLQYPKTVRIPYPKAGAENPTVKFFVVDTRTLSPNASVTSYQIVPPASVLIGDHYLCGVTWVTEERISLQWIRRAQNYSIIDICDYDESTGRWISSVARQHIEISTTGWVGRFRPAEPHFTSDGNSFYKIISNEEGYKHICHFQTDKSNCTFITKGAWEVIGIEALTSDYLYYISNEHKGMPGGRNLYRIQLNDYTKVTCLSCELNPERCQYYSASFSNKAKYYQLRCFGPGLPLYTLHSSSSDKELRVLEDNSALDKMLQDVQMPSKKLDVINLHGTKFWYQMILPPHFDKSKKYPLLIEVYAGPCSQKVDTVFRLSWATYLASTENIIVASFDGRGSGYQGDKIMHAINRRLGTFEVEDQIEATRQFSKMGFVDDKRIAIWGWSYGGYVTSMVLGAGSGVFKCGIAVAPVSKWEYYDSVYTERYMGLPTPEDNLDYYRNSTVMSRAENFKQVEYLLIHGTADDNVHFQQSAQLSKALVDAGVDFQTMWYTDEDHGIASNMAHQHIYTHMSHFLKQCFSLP
DP9, sequence (Q86TI2 whole entry, species assumed, canonical isoform): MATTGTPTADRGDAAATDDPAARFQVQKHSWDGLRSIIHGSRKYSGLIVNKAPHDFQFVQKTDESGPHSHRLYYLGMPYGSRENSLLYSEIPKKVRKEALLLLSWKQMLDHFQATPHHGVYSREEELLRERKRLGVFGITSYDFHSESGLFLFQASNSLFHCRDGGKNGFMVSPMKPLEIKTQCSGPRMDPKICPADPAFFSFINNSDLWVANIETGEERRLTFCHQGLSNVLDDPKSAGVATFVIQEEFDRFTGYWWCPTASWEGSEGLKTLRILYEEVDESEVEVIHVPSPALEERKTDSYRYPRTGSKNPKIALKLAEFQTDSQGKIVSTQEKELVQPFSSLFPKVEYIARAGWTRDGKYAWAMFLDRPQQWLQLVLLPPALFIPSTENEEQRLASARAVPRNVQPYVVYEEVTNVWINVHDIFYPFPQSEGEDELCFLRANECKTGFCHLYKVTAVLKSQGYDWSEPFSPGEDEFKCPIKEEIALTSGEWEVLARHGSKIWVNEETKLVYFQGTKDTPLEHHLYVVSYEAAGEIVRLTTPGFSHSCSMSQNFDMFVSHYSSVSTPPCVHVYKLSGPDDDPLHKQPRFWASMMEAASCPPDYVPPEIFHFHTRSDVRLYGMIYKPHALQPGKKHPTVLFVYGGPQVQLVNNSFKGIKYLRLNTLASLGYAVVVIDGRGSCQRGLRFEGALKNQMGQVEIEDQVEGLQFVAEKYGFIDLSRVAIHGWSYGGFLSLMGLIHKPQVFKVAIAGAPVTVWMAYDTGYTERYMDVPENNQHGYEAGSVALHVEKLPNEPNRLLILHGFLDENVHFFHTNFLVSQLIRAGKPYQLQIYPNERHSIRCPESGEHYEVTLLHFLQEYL
DP8, sequence (Q6V1X1 whole entry, species assumed, canonical isoform): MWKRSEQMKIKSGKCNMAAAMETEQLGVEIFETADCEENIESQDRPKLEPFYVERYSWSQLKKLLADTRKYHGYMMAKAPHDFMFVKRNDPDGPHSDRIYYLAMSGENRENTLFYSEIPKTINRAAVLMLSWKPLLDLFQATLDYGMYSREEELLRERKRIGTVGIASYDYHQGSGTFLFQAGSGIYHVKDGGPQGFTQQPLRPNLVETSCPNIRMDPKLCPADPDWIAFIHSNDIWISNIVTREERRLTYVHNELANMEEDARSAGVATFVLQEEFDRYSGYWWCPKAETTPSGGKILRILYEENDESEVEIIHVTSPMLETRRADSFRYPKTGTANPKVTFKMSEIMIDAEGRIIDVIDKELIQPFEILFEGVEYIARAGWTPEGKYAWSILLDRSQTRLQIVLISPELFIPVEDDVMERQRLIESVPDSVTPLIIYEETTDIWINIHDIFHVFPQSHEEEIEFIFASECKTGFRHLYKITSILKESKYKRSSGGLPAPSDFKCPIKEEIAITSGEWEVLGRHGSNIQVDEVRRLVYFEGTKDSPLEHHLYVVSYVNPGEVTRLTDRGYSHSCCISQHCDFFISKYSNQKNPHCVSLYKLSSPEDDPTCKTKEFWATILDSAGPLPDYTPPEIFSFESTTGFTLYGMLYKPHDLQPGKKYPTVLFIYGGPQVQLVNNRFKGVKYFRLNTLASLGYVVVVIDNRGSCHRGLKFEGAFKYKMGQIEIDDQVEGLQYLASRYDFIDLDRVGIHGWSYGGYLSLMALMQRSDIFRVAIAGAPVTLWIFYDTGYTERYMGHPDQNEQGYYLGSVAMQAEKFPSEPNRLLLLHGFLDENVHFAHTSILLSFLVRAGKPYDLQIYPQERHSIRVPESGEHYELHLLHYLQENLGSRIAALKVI
T1 sequence (P27487 whole entry, species assumed): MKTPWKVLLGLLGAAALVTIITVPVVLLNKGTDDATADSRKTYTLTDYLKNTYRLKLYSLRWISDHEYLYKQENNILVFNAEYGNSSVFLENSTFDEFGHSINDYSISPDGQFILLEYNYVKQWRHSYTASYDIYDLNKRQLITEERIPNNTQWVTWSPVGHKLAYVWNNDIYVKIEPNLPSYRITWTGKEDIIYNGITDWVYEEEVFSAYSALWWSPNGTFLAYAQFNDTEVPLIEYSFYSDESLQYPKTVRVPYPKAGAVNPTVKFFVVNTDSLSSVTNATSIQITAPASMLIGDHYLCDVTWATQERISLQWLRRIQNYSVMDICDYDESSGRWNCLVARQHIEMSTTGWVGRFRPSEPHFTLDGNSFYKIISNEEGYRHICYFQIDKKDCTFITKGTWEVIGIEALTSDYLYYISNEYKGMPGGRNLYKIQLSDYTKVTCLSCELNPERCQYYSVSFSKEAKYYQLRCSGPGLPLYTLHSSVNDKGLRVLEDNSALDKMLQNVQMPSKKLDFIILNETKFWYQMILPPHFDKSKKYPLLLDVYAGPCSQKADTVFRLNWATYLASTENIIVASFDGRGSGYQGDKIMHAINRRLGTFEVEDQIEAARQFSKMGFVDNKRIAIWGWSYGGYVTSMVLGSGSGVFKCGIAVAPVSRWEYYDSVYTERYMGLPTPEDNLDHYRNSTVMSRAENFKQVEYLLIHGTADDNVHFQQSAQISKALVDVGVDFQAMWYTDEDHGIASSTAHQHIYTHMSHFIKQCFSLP

With `C[C@H](N)C(=S)N1CCC[C@H]1B(O)O` [Ala-boroPro Thioxamide], the half-life at DPPIV [1] was 47 min; in data set [2] it was 60 min.
Regarding `N[C@@H](CCC(=O)O)C(=S)N1CCC[C@H]1B(O)O` [Glu-boroPro Thioxamide], the “Inactivation Index” value at DP-IV (IC50 pH 8.0 to pH 2.0) was found to be 190. Further, the IC50 on DP-IV (pH 2.0, read-out: IC50 (pH 2.0)) stood at 4.6 nM; on DP-IV (pH 8.0, read-out: IC50 (pH 8.0)), 890 nM; on DP8 (pH 2, read-out: IC50s DP8 pH 2), 16 nM; at DP8 (pH 7.8, read-out: IC50s DP8 pH 7.8), 2000 nM; on DP9 (pH 2, read-out: IC50s DP9 pH 2), 8.7 nM; at DP9 (pH 7.8, read-out: IC50s DP9 pH 7.8), 1800 nM. Further, the IC50 at DPPIV [3] (pH 2, read-out: IC50s DPPIV pH 2) worked out at 4.6 nM; on DPPIV [3] (pH 7.8, read-out: IC50s DPPIV pH 7.8), 890 nM. In addition, at DP8 (IC50 pH 7.8 to pH 2), the “DP8 Ratio” value is reported as 130. Further, on DP8 (pH 2), the “Ratio DPP8 to DPIV (pH 2)” value is recorded as 3.4. The “DP9 Ratio” value at DP9 (IC50 pH 7.8 to pH 2) came to 180. The “Ratio DP9 To DPIV (pH 2)” value on DP9 (pH 2) is on record as 1.9. In addition, the “DPPIV Ratio” value at DPPIV [3] (IC50 pH 7.8 to pH 2) is recorded as 190.
Consider `C[C@H](N)C(=O)N1CCC[C@H]1B(O)O` [Ala-boroPro, reference compound], for which the half-life in data set [2] worked out at 30 min.
